46 compounds from ChEMBL document CHEMBL5126532, “Synthetic approaches and structural diversity of triazolylbutanols derived from voriconazole in the antifungal drug development” (Eur J Med Chem, 2022) can be followed below.

As a reminder, the MIC is the least concentration at which growth counts as inhibited. The MIC80 is the lowest concentration that inhibits either 80% of growth or 80% of the strains tested, depending on the study.

In brackets after ≈: the same amount, converted by molar mass.

What all share (format): functional
The test system of one assay is Candida. The assay is described as follows: Antifungal activity against Candida spp.
In assay [1] the test system is Cryptococcus neoformans. The assay is described as follows: Antifungal activity against Cryptococcus neoformans. As to conditions: Cryptococcus neoformans; read-out: MIC.
The test system of the next assay is Candida parapsilosis. Briefly: Antifungal activity against Candida parapsilosis. The settings on record: Lodderomyces parapsilosis.
Assay [2] relates to Candida albicans. The assay is described as follows: Antifungal activity against Candida albicans assessed as inhibition of fungal growth incubated for 20 hrs.
For assay [3], the system named is Candida albicans. The assay is described as follows: Antifungal activity against Candida albicans.
Assay [4] has as its system Cryptococcus neoformans. The assay is described as follows: Antifungal activity against Cryptococcus neoformans TIMM 1855 by 96-well microplate method.
A further assay has as its system Aspergillus flavus. The assay is described as follows: Antifungal activity against Aspergillus flavus SANK 18497 by 96-well microplate method.
In another assay the test system is Aspergillus fumigatus. Briefly: Antifungal activity against Aspergillus fumigatus SANK 10569 by 96-well microplate method.
Assay [5] concerns Candida albicans. The assay is described as follows: Antifungal activity against Candida albicans SANK 51486 by 96-well microplate method.

For the compound `C[C@H](n1nnc(CCN2CCN(c3cccc(C(F)(F)F)c3)CC2)n1)[C@](O)(Cn1cncn1)c1ccc(F)cc1F`, the MIC in the assay on Candida and in the assay with Cryptococcus neoformans [1] was 0.25 µg/mL (≈ 0.433 µM) throughout. On to `C[C@@H](N1CCN(c2ccc(-n3cnn(Cc4cccc(C(F)(F)F)c4)c3=O)cn2)CC1)[C@](O)(Cn1cncn1)c1ccc(F)cc1F`, for which 4 µg/mL (≈ 6.1 µM) was the least that counted as inhibitory with Candida parapsilosis (MIC). Turning to `CC(C)CCC(=O)OC[n+]1cnn(C[C@](O)(c2ccc(F)cc2F)[C@@H](C)N2CCN(c3ccc(-n4cnnn4)cc3)C2=O)c1.[I-]`, the MIC in the assay on Candida albicans [2] was 0.016 µg/mL. With `C[C@@H](N1CCN(c2ccc(-n3cnnn3)cc2)C1=O)[C@](O)(Cn1c[n+](COC(=O)OC2COCOC2)cn1)c1ccc(F)cc1F.[I-]`, the MIC in the assay with Candida albicans [2] is 0.016 µg/mL. As to `C[C@@H](OCc1cc(-c2cc(F)cc(F)c2)no1)[C@](O)(Cn1cncn1)c1ccc(F)cc1F`, the MIC80 against Candida albicans [3] was found to be 0.0313 µg/mL (≈ 0.0677 µM). On the same count and under the same terms, the same measure for `C[C@@H](OCc1cc(-c2ccc(Cl)cc2)no1)[C@](O)(Cn1cncn1)c1ccc(F)cc1F`: 0.0313 µg/mL (≈ 0.0679 µM).

In turn, `C[C@@H](N1CCN(c2ccc(-n3cnn(Cc4cc(C(F)(F)F)cc(C(F)(F)F)c4)c3=O)nc2)CC1)[C@](O)(Cn1cncn1)c1ccc(F)cc1F` gave an MIC in the assay on Candida parapsilosis of 4 µg/mL (≈ 5.53 µM).

`C[C@@H](OCc1cc(-c2cc(F)c(F)c(F)c2F)no1)[C@](O)(Cn1cncn1)c1ccc(F)cc1F` gave an MIC80 against Candida albicans [3] of 0.0313 µg/mL (≈ 0.0628 µM). For `CC(C)COC(=O)OC[n+]1cnn(C[C@](O)(c2ccc(F)cc2F)[C@@H](C)N2CCN(c3ccc(-n4cnnn4)cc3)C2=O)c1.[I-]`, the MIC in the assay on Candida albicans [2] amounted to 0.016 µg/mL.

`C[C@@H](S[C@H]1CO[C@H](/C=C/C=C/c2ccc(C#N)cc2F)OC1)[C@](O)(Cn1cncn1)c1ccc(F)cc1`: the MIC against Cryptococcus neoformans [4], against Aspergillus flavus, in the assay with Aspergillus fumigatus and against Candida albicans [5] was ≤ 0.008 µg/mL each time. Regarding `Cc1cccc(-c2cc(CO[C@H](C)[C@](O)(Cn3cncn3)c3ccc(F)cc3F)on2)c1`, the MIC80 against Candida albicans [3] came out at 0.0313 µg/mL (≈ 0.0711 µM). For `C[C@@H](N1CCN(c2ccc(-n3cnnn3)cc2)C1=O)[C@](O)(Cn1c[n+](COC(=O)C(C)(C)C)cn1)c1ccc(F)cc1F.[I-]`, the MIC in the assay with Candida albicans [2] was determined as 0.016 µg/mL. Take `C[C@@H](OCc1cc(-c2c(F)cc(F)cc2F)no1)[C@](O)(Cn1cncn1)c1ccc(F)cc1F`: the MIC80 in the assay with Candida albicans [3] was 0.0313 µg/mL (≈ 0.0652 µM). Consider `C[C@@H](OCc1cc(-c2ccc(F)cc2F)no1)[C@](O)(Cn1cncn1)c1ccc(F)cc1F`, for which the MIC80 against Candida albicans [3] is 0.0313 µg/mL (≈ 0.0677 µM). As to `C[C@@H](N1CCN(c2ccc(-n3cnn(Cc4cc(C(F)(F)F)cc(C(F)(F)F)c4)c3=O)cn2)CC1)[C@](O)(Cn1cncn1)c1ccc(F)cc1F`, in the assay on Candida parapsilosis, the lowest concentration to inhibit growth (MIC) was 4 µg/mL (≈ 5.53 µM). In the assay on Candida albicans [3], `C[C@@H](OCc1cc(-c2cc(F)ccc2F)no1)[C@](O)(Cn1cncn1)c1ccc(F)cc1F` came in with an MIC80 of 0.0313 µg/mL (≈ 0.0677 µM). Same read-out and setting: the value for `C[C@@H](OCc1cc(-c2c(F)cccc2F)no1)[C@](O)(Cn1cncn1)c1ccc(F)cc1F` was 0.0313 µg/mL (≈ 0.0677 µM); that for `C[C@@H](OCc1cc(-c2ccccc2Cl)no1)[C@](O)(Cn1cncn1)c1ccc(F)cc1F` was 0.0313 µg/mL (≈ 0.0679 µM); that for `C[C@@H](OCc1cc(-c2cccc(F)c2F)no1)[C@](O)(Cn1cncn1)c1ccc(F)cc1F` was 0.0313 µg/mL (≈ 0.0677 µM).

In the assay on Candida albicans [3], `C[C@@H](OCc1cc(-c2ccc(F)c(F)c2)no1)[C@](O)(Cn1cncn1)c1ccc(F)cc1F` displayed an MIC80 of 0.0313 µg/mL (≈ 0.0677 µM). For the compound `CC(C)C(=O)OC[n+]1cnn(C[C@](O)(c2ccc(F)cc2F)[C@@H](C)N2CCN(c3ccc(-n4cnnn4)cc3)C2=O)c1.[I-]`, the MIC in the assay with Candida albicans [2] came to 0.016 µg/mL. Consider `C[C@@H](N1CCN(c2ccc(-n3cnn(Cc4cc(C(F)(F)F)cc(C(F)(F)F)c4C(F)(F)F)c3=O)nc2)CC1)[C@](O)(Cn1cncn1)c1ccc(F)cc1F`, for which it took 4 µg/mL (≈ 5.05 µM) to inhibit growth with Candida parapsilosis (MIC). Compound `C[C@@H](OCc1cc(-c2ccc(Cl)c(F)c2)no1)[C@](O)(Cn1cncn1)c1ccc(F)cc1F` returned an MIC80 with Candida albicans [3] of 0.0313 µg/mL (≈ 0.0654 µM).

As for `C[C@@H](OCc1cc(-c2ccc(OC(F)(F)F)cc2)no1)[C@](O)(Cn1cncn1)c1ccc(F)cc1F`, the MIC80 against Candida albicans [3] stood at 0.0313 µg/mL (≈ 0.0613 µM).

For the compound `C[C@@H](OCc1cc(-c2ccc(F)cc2Cl)no1)[C@](O)(Cn1cncn1)c1ccc(F)cc1F`, the MIC80 against Candida albicans [3] turned out to be 0.0313 µg/mL (≈ 0.0654 µM).

`C[C@@H](OCc1cc(-c2ccc(C#N)cc2)no1)[C@](O)(Cn1cncn1)c1ccc(F)cc1F` showed an MIC80 against Candida albicans [3] of 0.0313 µg/mL (≈ 0.0693 µM). Same read-out and setting: the same measure for `Cc1ccc(-c2cc(CO[C@H](C)[C@](O)(Cn3cncn3)c3ccc(F)cc3F)on2)cc1`: 0.0313 µg/mL (≈ 0.0711 µM). `CC(C)n1ncn(-c2ccc(N3CCN([C@H](C)[C@](O)(Cn4cncn4)c4ccc(F)cc4F)CC3)nc2)c1=O` yielded an MIC against Candida parapsilosis of 0.25 µg/mL (≈ 0.463 µM). Take `C[C@@H](OCc1cc(-c2ccc(Cl)cc2F)no1)[C@](O)(Cn1cncn1)c1ccc(F)cc1F`: in the assay with Candida albicans [3], the MIC80 was 0.0313 µg/mL (≈ 0.0654 µM). In the assay on Candida parapsilosis, `C[C@@H](N1CCN(c2ccc(-n3cnn(Cc4cccc(C(F)(F)F)c4)c3=O)nc2)CC1)[C@](O)(Cn1cncn1)c1ccc(F)cc1F` returned an MIC of 4 µg/mL (≈ 6.1 µM). Compound `C[C@@H](OCc1cc(-c2cccc(Cl)c2)no1)[C@](O)(Cn1cncn1)c1ccc(F)cc1F` gave an MIC80 with Candida albicans [3] of 0.0313 µg/mL (≈ 0.0679 µM). `C[C@@H](N1CCN(c2ccc(-n3cnn(Cc4ccc(C(F)(F)F)cc4)c3=O)cn2)CC1)[C@](O)(Cn1cncn1)c1ccc(F)cc1F` returned an MIC against Candida parapsilosis of 4 µg/mL (≈ 6.1 µM). On the same count and under the same terms, the value for `C[C@@H](N1CCN(c2ccc(-n3cnn(Cc4cc(C(F)(F)F)cc(C(F)(F)F)c4C(F)(F)F)c3=O)cn2)CC1)[C@](O)(Cn1cncn1)c1ccc(F)cc1F` was 4 µg/mL (≈ 5.05 µM). Regarding `CCC(=O)OC[n+]1cnn(C[C@](O)(c2ccc(F)cc2F)[C@@H](C)N2CCN(c3ccc(-n4cnnn4)cc3)C2=O)c1.[I-]`, the minimal inhibitory concentration (MIC) with Candida albicans [2] was 0.016 µg/mL. On to `CC(=O)NCCOC(=O)OC[n+]1cnn(C[C@](O)(c2ccc(F)cc2F)[C@@H](C)N2CCN(c3ccc(-n4cnnn4)cc3)C2=O)c1.[I-]`, for which, in the assay on Candida albicans [2], the MIC came to 0.016 µg/mL. Consider `Cc1ccccc1-c1cc(CO[C@H](C)[C@](O)(Cn2cncn2)c2ccc(F)cc2F)on1`, for which the MIC80 in the assay with Candida albicans [3] is 0.0313 µg/mL (≈ 0.0711 µM). For the compound `C[C@@H](N1CCN(c2ccc(-n3cnn(Cc4ccc(OC(F)(F)F)cc4)c3=O)cn2)CC1)[C@](O)(Cn1cncn1)c1ccc(F)cc1F`, the MIC in the assay on Candida parapsilosis came out at 4 µg/mL (≈ 5.96 µM). Consider `C[C@@H](S[C@H]1CO[C@H](/C=C/C=C/c2ccc(C#N)cc2)OC1)[C@](O)(Cn1cncn1)c1ccc(F)cc1F`, for which the MIC with Cryptococcus neoformans [4], in the assay with Aspergillus flavus, against Aspergillus fumigatus and in the assay with Candida albicans [5] was ≤ 0.008 µg/mL in each case. For the compound `C[C@@H](OCc1cc(-c2ccc(C(F)(F)F)cc2)no1)[C@](O)(Cn1cncn1)c1ccc(F)cc1F`, the MIC80 against Candida albicans [3] was found to be 0.0313 µg/mL (≈ 0.0633 µM). Compound `C[C@@H](OCc1cc(-c2c(F)c(F)c(F)c(F)c2F)no1)[C@](O)(Cn1cncn1)c1ccc(F)cc1F` showed an MIC80 in the assay on Candida albicans [3] of 0.0313 µg/mL (≈ 0.0606 µM).

On to `C[C@@H](OCc1cc(-c2cccc(F)c2)no1)[C@](O)(Cn1cncn1)c1ccc(F)cc1F`, for which the MIC80 with Candida albicans [3] amounted to 0.0313 µg/mL (≈ 0.0704 µM). The same measure, in the same setting: the same measure for `C[C@@H](OCc1cc(-c2ccc(F)c(Cl)c2)no1)[C@](O)(Cn1cncn1)c1ccc(F)cc1F`: 0.0313 µg/mL (≈ 0.0654 µM); for `C[C@@H](OCc1cc(-c2ccccc2F)no1)[C@](O)(Cn1cncn1)c1ccc(F)cc1F`: 0.0313 µg/mL (≈ 0.0704 µM). In the assay on Candida parapsilosis, `C[C@@H](N1CCN(c2ccc(-n3cnn(Cc4ccc(OC(F)(F)F)cc4)c3=O)nc2)CC1)[C@](O)(Cn1cncn1)c1ccc(F)cc1F` showed an MIC of 4 µg/mL (≈ 5.96 µM). On the same count and under the same terms, the value for `C[C@@H](N1CCN(c2ccc(-n3cnn(Cc4ccc(C(F)(F)F)cc4)c3=O)nc2)CC1)[C@](O)(Cn1cncn1)c1ccc(F)cc1F` was 4 µg/mL (≈ 6.1 µM). Consider `C[C@@H](OCc1cc(-c2ccccc2)no1)[C@](O)(Cn1cncn1)c1ccc(F)cc1F`, for which, in the assay on Candida albicans [3], the MIC80 turned out to be 0.0313 µg/mL (≈ 0.0734 µM).
